Results on six compounds are retold here after ChEMBL document CHEMBL1201862, “PubChem BioAssay data set” (2004).

SMILES strings stand for the structures.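 Cultured in 96-well plates, cells were exposed to test compound for 48 hours across five concentrations. Here, GI50 denotes the concentration required for 50% inhibition of growth.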 Active and inactive are the calls of the source. Rule as the data show it: active = GI50 up to about 1.1 µM and inactive = higher. Bounds are passed on as bounds.

Some test systems named below: CCRF-CEM; EKVX; HCT-15; HL-60; HT-29; M14; MOLT-4; Malme-3M; NCI-H522; OVCAR-3; OVCAR-4; SF-268; SF-539; SN12C; SNB-75; U-251.
Assay in all cases: inhibition of tumour cell growth, NCI panel, 48 h

For the compound `COc1ccc(OC)c(/C=C/C(=O)C(C)(C)C)c1`, the GI50 with CCRF-CEM is 14.3 µM (inactive); with EKVX, 16.4 µM (inactive); in the assay with HCT-15 it was 20.1 µM; in the assay with HL-60 it was 14.7 µM (inactive); in the assay on HT-29 it was 27.4 µM (inactive); in the assay with M14, 15.7 µM (inactive). Further, the GI50 with MOLT-4 was 13.6 µM (inactive); in the assay with Malme-3M, 17.9 µM (inactive); with NCI-H522 it was 13.8 µM (inactive); in the assay on OVCAR-3, 23.3 µM (inactive); in the assay on OVCAR-4, 22.6 µM (inactive); in the assay on SF-268, > 10 µM (inactive). The GI50 in the assay with SF-539 is 19.8 µM (inactive); with SN12C, 21 µM (inactive); in the assay with SNB-75, 26 µM (inactive); in the assay on U-251, 20 µM (inactive).
With `CSc1nc2c(c(O)c(C)c(=O)n2C2OCC(OC(C)=O)C(OC(C)=O)C2OC(C)=O)c(=O)n1C` (configuration not stated), the GI50 in the assay with CCRF-CEM is > 100 µM (inactive); in the assay on HCT-15, over 100 µM; with HL-60 it was > 100 µM (inactive); in the assay on HT-29 it was > 100 µM (inactive); in the assay on M14, > 100 µM (inactive); in the assay with MOLT-4, > 100 µM (inactive). Also, the GI50 in the assay on Malme-3M, with NCI-H522, with OVCAR-3, in the assay with OVCAR-4, with SF-268 and in the assay on SF-539 was > 100 µM (inactive) in each case. Besides, the GI50 in the assay on SN12C, in the assay on SNB-75 and in the assay with U-251 was > 100 µM (inactive) each time.
Take `Cc1ccccc1C1SCc2nc3ccccc3n21` (configuration not stated): the GI50 with CCRF-CEM was > 100 µM (inactive); in the assay with EKVX, > 100 µM (inactive); with HL-60, 1.92 µM (inactive); in the assay on Malme-3M, 44.9 µM (inactive); with NCI-H522, 21.8 µM (inactive); in the assay with OVCAR-3 it was > 100 µM (inactive). Also, the GI50 with SF-268 is > 100 µM (inactive); in the assay with SF-539, 70.1 µM (inactive); in the assay with SN12C it was > 100 µM (inactive); with SNB-75, > 100 µM (inactive); in the assay on U-251, > 100 µM (inactive).
Consider `COc1cc2cc3c4c(cc(OC)c(OC)c4c2cc1OC)CCN3C(=O)CCCC(=O)O`, for which the GI50 with CCRF-CEM, with EKVX, with HL-60, in the assay with HT-29, with M14 and in the assay with MOLT-4 was > 100 µM (inactive) each time. Further, the GI50 with Malme-3M was > 100 µM (inactive); in the assay on NCI-H522 it was > 100 µM (inactive); in the assay on OVCAR-3 it was > 100 µM (inactive); in the assay with OVCAR-4, 34.8 µM (inactive); in the assay with SF-268, > 100 µM (inactive); in the assay on SF-539 it was > 100 µM (inactive). The GI50 in the assay with SN12C and with U-251 was > 100 µM (inactive) in each case.
On to `CCC1CC(C)=CCN1S(=O)(=O)c1ccc(C)cc1` (configuration not stated), for which the GI50 in the assay with CCRF-CEM was 4.9 µM (inactive); in the assay on EKVX it was 31.8 µM (inactive); in the assay with HCT-15, 6.52 µM; in the assay on HL-60, 3.61 µM (inactive); in the assay with HT-29, 20 µM (inactive); in the assay with M14 it was 22 µM (inactive). The GI50 was 28.2 µM (inactive) in the assay with MOLT-4; 17.3 µM (inactive) in the assay on Malme-3M; 16.6 µM (inactive) in the assay with NCI-H522; 17.4 µM (inactive) in the assay on OVCAR-3; 39 µM (inactive) with OVCAR-4; 15.9 µM (inactive) in the assay with SF-268. Further, the GI50 was 14.5 µM (inactive) in the assay with SF-539, 9.57 µM (inactive) with SN12C and 13.9 µM (inactive) in the assay on SNB-75.
With `CC12Oc3ccc4ccccc4c3CC1Cc1c(ccc3ccccc13)O2` (configuration not stated), the GI50 with EKVX was > 100 µM (inactive); with HL-60, > 100 µM (inactive); with HT-29 it was > 100 µM (inactive); in the assay with M14, 38.9 µM (inactive); in the assay with Malme-3M, 3.44 µM (inactive); in the assay with NCI-H522, 70 µM (inactive). Moreover, the GI50 in the assay on OVCAR-4 is 26.5 µM (inactive); with SF-268, > 100 µM (inactive); with SF-539, 60.4 µM (inactive); in the assay on SNB-75, 7.08 µM (inactive); in the assay on U-251 it was 50.6 µM (inactive).
